This is an account of results in US11013735B2, “Specific Akt3 inhibitor and uses thereof” (Augusta University Research Institute, Inc., priority 2016, dated 2021).

In one test the test system is CD4+ T cells. In words: Proliferation (level of VCT) of FACS-sorted CD4+ T cells by flow cytometry. The format is cell-based, C57BL/6J(foxp3-GFP). Particulars: anti-CD3, IL2 and anti-CD28, 72 hrs, live gated cells. As for the experimental part: (§1) FACS-sorted nTregs, CD4+ and CD8+ T cells from C57BL/6J(foxp3-GFP) were plated on anti-CD3-coated plates and cultured in activation media (IL2 and anti-CD28) without inhibitors (Stimulated) and with inhibitors (JJ64-E) for 72 hrs. For negative control (Non-stimulated-NS) cells were left in media containing IL-2 for 72 hrs. After 72 hrs Proliferation (level of VCT) in live gated cells was measured by flow cytometry.

A further test concerns nTregs. In words: Proliferation (level of VCT) of FACS-sorted nTregs by flow cytometry. The format is cell-based, C57BL/6J(foxp3-GFP). Particulars: anti-CD3, IL2 and anti-CD28, 72 hrs, live gated cells. The procedure: as §1
(A flow cytometer gives signals particle by particle.)

The test system of test [1] is TC-1 tumor. In words: TC-1 tumor growth and survival, JJ64-E alone or with vaccine. The format is in vivo, C57BL/6 mice. Particulars: i.p. every day from day 6. The procedure:
C57BL/6 mice (n=5/group) were injected s.c. in the right flank with 7×10^4 TC-1 cells. Mice from appropriate groups were injected weekly with vaccine (s.c.) or DMSO 5% as a control. Mice were also treated with vaccine (weekly) along with either 10 mg/kg or 20 mg/kg of JJ64-E injected (i.p.) every day starting on day 6 after tumor implantation throughout the experiment.
FIGS. 5B and 5C are bar diagrams showing average tumor volumes of mice for each group. FIG. 5D is a Kaplan-Meier plot of the overall survival. Statistical significance was determined by Log-rank (Mantel-Cox) test.
(§2) Statistical significance was determined by one-way ANOVA with Tukey's multiple comparison test (*, p<0.05; **, p<0.01; ***, p<0.001).

In the next test the test system is CD8+ T cells. In words: Proliferation (level of VCT) of FACS-sorted CD8+ T cells by flow cytometry. The format is cell-based, C57BL/6J(foxp3-GFP). Particulars: anti-CD3, IL2 and anti-CD28, 72 hrs, live gated cells. The procedure:
as §1

Test [2] concerns CD8 and other (FoxP3neg) CD4 T cells. In words: Percentage of CD4 and CD8 T cells in vivo in TC-1 tumor model. Details: species or system WT C57BL/6 mice. Particulars: TC-1 tumor-bearing mice, 5 mg/kg or 10 mg/kg i.p. everyday from day 10, day 15, spleen. As for the experimental part:
WT C57BL/6 4-6 weeks old female mice (n=5/group) were injected s.c. in the right flank with 7×10^4 TC-1 cells. Mice from appropriate groups were treated with either 5 mg/kg or 10 mg/kg of JJ64-E injected (i.p.) everyday starting on day 10 after tumor implantation throughout the experiment. All groups were euthanized on day 15 of TC-1 implantation. The percentage of CD4 and CD8 were analyzed in splenic CD4+ cells by flow cytometry.

A further test has as its target T1, Akt3 (Mus musculus, UniProt Q9WUA6).
T1 construct: nTreg cell lysates prepared on day 3 (72 hrs) of treatment were separated by SDS-PAGE and immunoblotted; endogenous in cells; host or cells: FACS-sorted primary nTregs from WT C57BL/6J (foxp3-GFP) mice
Briefly: Immunoblot of Akt3 phosphorylation (pAkt3) in activated nTregs. It is filed as cell-based, WT C57BL/6J (foxp3-GFP) mice. Particulars: nTregs on anti-CD3 with IL2 and anti-CD28, different concentrations of inhibitor, 72 hrs. As for the experimental part:
(§3) FACS-sorted natural regulatory T cells (nTregs), from WT C57BL/6J (foxp3-GFP) mice were plated on anti-CD3-coated plates and cultured in activation media (IL2 and anti-CD28) without inhibitors (Stimulated) and with different concentrations of inhibitor 4-[(6-nitroquinolin-4-yl)amino]-N-[4-(pyridin-4-ylamino)phenyl]benzamide (also referred to as JJ64-E) for 72 hrs. For negative control (Non-stimulated-NS) cells were left in media containing IL-2 for 72 hrs. nTreg cell lysates prepared on day 3 (72 hrs) of treatment were separated by SDS-PAGE and immunoblotted with specific antibodies (pAkt1) or pAkt3; actin was used as loading control.

The target of another test is T2, Akt1 (Mus musculus, UniProt P31750).
T2 construct: endogenous in cells; host or cells: FACS-sorted primary nTregs from WT C57BL/6J (foxp3-GFP) mice
In words: Immunoblot of Akt1 phosphorylation (pAkt1) in activated nTregs. The format is cell-based, WT C57BL/6J (foxp3-GFP) mice. Particulars: nTregs on anti-CD3 with IL2 and anti-CD28, different concentrations of inhibitor, 72 hrs. As for the experimental part: as §3
For orientation: In western blotting, separated proteins are transferred to a membrane and probed.

The subject of another test is Tregs (CD4+Foxp3+). In words: Percentage of Tregs in vivo in TC-1 tumor model. Details: species or system WT C57BL/6J mice. Particulars: TC-1 tumor-bearing mice, 5 mg/kg or 10 mg/kg i.p. every day from day 10, analysed day 15. As for the experimental part:
WT C57BL/6J mice (n=3/group) were injected s.c. in the right flank with 7×10^4 TC-1 cells. Mice from appropriate groups were treated with either 5 mg/kg or 10 mg/kg of JJ64-E injected (i.p.) every day starting on day 10 after tumor implantation throughout the experiment. All groups were euthanized on day 15 of TC-1 implantation. The percentage of Tregs (CD4+Foxp3+) was analyzed by flow cytometry.
as §2

Test [3] concerns TC-1 tumor. Briefly: TC-1 tumor growth and survival, JJ64-C alone or with vaccine. The format is in vivo, C57BL/6 mice. Particulars: i.p. every other day from day 6. The procedure: C57BL/6 mice (n=5/group) were injected s.c. in the right flank with 7×10^4 TC-1 cells. Mice from appropriate groups were injected weekly with vaccine (s.c.) or DMSO 5% as a control. Mice were also treated with vaccine (weekly) along with either 10 mg/kg or 20 mg/kg of JJ64-C (or FIG. 7A or Formula 18) injected (i.p.) every other day starting on day 6 after tumor implantation throughout the experiment.
FIGS. 7C and 7D are bar diagrams representing average tumor volumes of mice for each group. FIG. 7E is a Kaplan-Meier plot of the overall survival. Statistical significance was determined by Log-rank (Mantel-Cox) test.
as §2

Test [4] relates to iTreg induction (CD4+FoxP3+ cells). In words: iTreg induction from CD4+FoxP3- cells (TGF-β), flow cytometry. Particulars: anti-CD3, IL2, anti-CD28, TGF-β, 72 hrs. It is filed as cell-based. As for the experimental part:
FACS-sorted CD4+FoxP3− cells were plated on anti-CD3-coated plates with soluble IL2 and anti-CD28 with TGF-β (induction) Cell were induced for iTregs with JJ64-B (FIG. 6A) without inhibitor (Induction-IND)) for 72 hrs. Cells were harvested and the frequency of CD4+FoxP3+ cells was measured by flow cytometry.
FACS-sorted CD4+FoxP3− cells were plated on anti-CD3-coated plates with soluble IL2 and anti-CD28 with TGF-β (induction) Cell were induced for iTregs with JJ64-C (JJ64 modified drug C or Formula 18) or without inhibitor (Induction-IND)) for 72 hrs. Cells were harvested and the frequency of CD4+FoxP3+ cells was measured by flow cytometry.
FACS-sorted CD4+FoxP3− cells were plated on anti-CD3-coated plates with soluble IL2 and anti-CD28 with TGF-β (induction) Cell were induced for iTregs with JJ64-D (JJ64 modified drug D or FIG. 9A) or without inhibitor (Induction-IND)) for 72 hrs. Cells were harvested and the frequency of CD4+FoxP3+ cells was measured by flow cytometry.

The mark [5] stands for this setting: high dose as monotherapy (10 or 20 mg/kg tested).
The mark [6] stands for this setting: lower dose combined with weekly vaccine s.c. (10 or 20 mg/kg tested).
The mark [7] stands for this setting: high dose as monotherapy (10 or 20 mg/kg).
The mark [8] stands for this setting: lower dose combined with weekly vaccine s.c. (10 or 20 mg/kg).

The structures appear in SMILES notation.

T1 sequence (Q9WUA6 whole entry): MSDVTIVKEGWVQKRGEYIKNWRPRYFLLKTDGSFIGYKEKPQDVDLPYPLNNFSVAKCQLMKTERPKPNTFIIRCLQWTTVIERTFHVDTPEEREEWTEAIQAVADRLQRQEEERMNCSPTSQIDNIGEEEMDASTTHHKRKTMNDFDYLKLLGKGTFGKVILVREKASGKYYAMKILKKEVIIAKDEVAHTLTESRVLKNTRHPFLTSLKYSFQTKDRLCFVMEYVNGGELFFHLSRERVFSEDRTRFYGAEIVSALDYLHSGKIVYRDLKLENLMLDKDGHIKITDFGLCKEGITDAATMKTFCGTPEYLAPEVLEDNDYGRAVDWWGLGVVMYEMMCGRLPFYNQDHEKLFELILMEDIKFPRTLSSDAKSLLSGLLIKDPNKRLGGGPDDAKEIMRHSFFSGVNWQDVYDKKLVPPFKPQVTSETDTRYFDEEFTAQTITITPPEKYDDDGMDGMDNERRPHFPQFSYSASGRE
T2 sequence (P31750 whole entry): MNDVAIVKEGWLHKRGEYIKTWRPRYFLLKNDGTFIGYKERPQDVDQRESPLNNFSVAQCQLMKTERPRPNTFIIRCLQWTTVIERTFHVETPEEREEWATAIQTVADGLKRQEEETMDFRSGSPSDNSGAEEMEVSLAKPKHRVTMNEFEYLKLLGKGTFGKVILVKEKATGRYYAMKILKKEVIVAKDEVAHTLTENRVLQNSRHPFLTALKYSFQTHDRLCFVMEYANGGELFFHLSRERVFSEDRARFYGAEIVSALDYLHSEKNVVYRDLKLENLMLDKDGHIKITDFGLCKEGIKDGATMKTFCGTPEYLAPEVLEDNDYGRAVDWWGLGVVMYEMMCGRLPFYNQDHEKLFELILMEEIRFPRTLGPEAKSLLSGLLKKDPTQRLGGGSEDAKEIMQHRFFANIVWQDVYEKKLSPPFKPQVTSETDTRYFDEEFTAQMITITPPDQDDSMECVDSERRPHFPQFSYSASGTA

Consider `O=C(Nc1ccc(Nc2ccncc2)cc1)c1ccc(Nc2ccnc3ccc([N+](=O)[O-])cc23)cc1` [4-[(6-nitroquinolin-4-yl)amino]-N-[4-(pyridin-4-ylamino)phenyl]benzamide], for which the “other CD4 T cell proliferation (level of VCT)” value with CD4+ T cells is “sparing CD8 and other CD4 T cells”. Further, the “Treg proliferation (level of VCT)” value in the test on nTregs is given as “selectively inhibits Treg proliferation”. In the test with TC-1 tumor [1] (setting [5]), the “TC-1 tumor growth (tumor volume)” value is recorded as “inhibits TC-1 tumor growth” and the “overall survival (Kaplan-Meier)” value is “prolongs the survival”. In addition, in the test on TC-1 tumor [1] (setting [6]), the “TC-1 tumor growth (tumor volume)” value is on record as “inhibits TC-1 tumor growth” and the “overall survival (Kaplan-Meier)” value is reported as “prolongs the survival”. Besides, in the test on CD8+ T cells, the “CD8 T cell proliferation (level of VCT)” value is “sparing CD8”. Also, in test [2], the “CD8 T cells in vivo” value is reported as “does not affect CD8”; the “other (FoxP3neg) CD4 T cells in vivo” value was “does not affect CD8 and other (FoxP3neg) CD4 T cells”. Further, on Akt3, the “Akt3 phosphorylation in Tregs (pAkt3 immunoblot)” value is listed as “inhibits Akt3”. The “Akt1 phosphorylation in Tregs (pAkt1 immunoblot)” value at Akt1 is given as “not Akt1 phosphorylation”. Further, in the test on Tregs (CD4+Foxp3+), the “percentage of Tregs (CD4+Foxp3+) in vivo” value was “decreases Tregs in vivo”.
On to `O=C(Nc1cccc(Nc2ccncc2)c1)c1cccc(Nc2ccnc3ccc(F)cc23)c1` [compound 18], for which, in the test with TC-1 tumor [3] (setting [7]), the “TC-1 tumor growth (tumor volume)” value is “inhibits TC-1 tumor growth” and the “overall survival (Kaplan-Meier)” value was “prolongs the survival”. In the test with TC-1 tumor [3] (setting [8]), the “TC-1 tumor growth (tumor volume)” value is “inhibits TC-1 tumor growth” and the “overall survival (Kaplan-Meier)” value is given as “prolongs the survival”. Moreover, the “iTreg induction (frequency of CD4+FoxP3+ cells)” value in test [4] is “inhibits iTregs induction”.
